Assay results from ChEMBL document CHEMBL1135046, “Synthesis of an alpha-aminophosphonate nucleoside as an inhibitor of S-adenosyl-L-homocysteine hydrolase” (Bioorg Med Chem Lett, 2002).

T1: Adenosylhomocysteinase (Rattus norvegicus, UniProt P10760)
T1 sequence (P10760 whole entry): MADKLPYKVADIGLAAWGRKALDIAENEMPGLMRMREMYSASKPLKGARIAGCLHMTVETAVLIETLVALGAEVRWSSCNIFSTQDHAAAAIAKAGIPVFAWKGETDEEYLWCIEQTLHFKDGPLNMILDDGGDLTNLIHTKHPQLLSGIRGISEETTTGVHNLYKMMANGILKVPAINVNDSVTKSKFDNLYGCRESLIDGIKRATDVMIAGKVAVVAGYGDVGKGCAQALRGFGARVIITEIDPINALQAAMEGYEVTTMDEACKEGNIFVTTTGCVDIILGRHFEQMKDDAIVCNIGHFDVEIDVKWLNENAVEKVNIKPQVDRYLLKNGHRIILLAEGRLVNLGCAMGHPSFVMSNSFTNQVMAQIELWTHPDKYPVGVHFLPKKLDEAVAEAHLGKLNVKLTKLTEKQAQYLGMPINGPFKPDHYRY

T2: Adenosylhomocysteinase (Rattus norvegicus) (UniProt P10760)
T2 sequence (whole entry): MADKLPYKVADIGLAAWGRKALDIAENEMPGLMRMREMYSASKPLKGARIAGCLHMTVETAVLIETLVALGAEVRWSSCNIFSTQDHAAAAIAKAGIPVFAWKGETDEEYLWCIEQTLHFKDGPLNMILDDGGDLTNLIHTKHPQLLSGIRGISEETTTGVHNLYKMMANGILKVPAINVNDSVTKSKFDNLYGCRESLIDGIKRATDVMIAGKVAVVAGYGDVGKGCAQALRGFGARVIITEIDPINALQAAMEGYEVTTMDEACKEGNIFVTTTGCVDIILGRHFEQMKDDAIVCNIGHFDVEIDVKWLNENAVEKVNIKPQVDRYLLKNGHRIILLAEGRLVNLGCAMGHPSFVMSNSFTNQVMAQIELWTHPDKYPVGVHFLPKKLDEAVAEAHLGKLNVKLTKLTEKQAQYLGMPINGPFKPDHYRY


Experiments:
Adenosylhomocysteinase = target: T1, Adenosylhomocysteinase; assay: (§1) Inhibition constant for the compound was determined against the recombinant rat liver AdoHyc hydrolase (MV1304/pUCSAH)
[1] = target: T2, Adenosylhomocysteinase (Rattus norvegicus); assay: as §1
[2] = substrate: Nc1ncnc2c1ncn2[C@@H]1O[C@H](CSCC[C@H](N)C(=O)O)[C@@H](O)[C@H]1O
Description: Km for the compound was determined against the recombinant rat liver AdoHyc hydrolase (MV1304/pUCSAH)

Ki (Adenosylhomocysteinase)	K inact [1]	Molecule	Km [2]
1090 µM	–	Nc1ncnc2c1ncn2C1OC(CSCC[C@H](N)C(=O)O)[C@@H](O)[C@H]1O (stereo in doubt; form 1) [listing 1 of 2 here]	–
–	0.0145 min⁻¹	Nc1ncnc2c1ncn2C1OC(CSCC[C@H](N)C(=O)O)[C@@H](O)[C@H]1O (stereo in doubt; form 1) [listing 2 of 2 here]	–
345 µM	–	Nc1ncnc2c1ncn2C1OC(CSCC[C@H](N)C(=O)O)[C@@H](O)[C@H]1O (stereo in doubt; form 2) [listing 1 of 2 here]	–

More lines, now with the values behind:

Molecule	Ki (Adenosylhomocysteinase)	K inact [1]	Km [2]
CC(C)CSC[C@H]1OC(n2cnc3c(N)ncnc32)[C@H](O)[C@@H]1O (some centres not stated)	105 µM	0.0488 min⁻¹	–
Nc1ncnc2c1ncn2C1OC(CSCC[C@H](N)C(=O)O)[C@@H](O)[C@H]1O (stereo in doubt; form 2) [listing 2 of 2 here]	–	0.0049 min⁻¹	–
Adenosylhomocysteinase (Rattus norvegicus), P10760 (protein) MADKLPYKVADIGLAAWGRKALDIAENEMPGLMRMREMYSASKPLKGARIAGCLHMTVETAVLIETLVALGAEVRWSSCNIFSTQDHAAAAIAKAGIPVFAWKGETDEEYLWCIEQTLHFKDGPLNMILDDGGDLTNLIHTKHPQLLSGIRGISEETTTGVHNLYKMMANGILKVPAINVNDSVTKSKFDNLYGCRESLIDGIKRATDVMIAGKVAVVAGYGDVGKGCAQALRGFGARVIITEIDPINALQAAMEGYEVTTMDEACKEGNIFVTTTGCVDIILGRHFEQMKDDAIVCNIGHFDVEIDVKWLNENAVEKVNIKPQVDRYLLKNGHRIILLAEGRLVNLGCAMGHPSFVMSNSFTNQVMAQIELWTHPDKYPVGVHFLPKKLDEAVAEAHLGKLNVKLTKLTEKQAQYLGMPINGPFKPDHYRY	–	–	9.7 µM
